Values quoted from earlier work as cited in patent publication US10981914B2, “Toll-like receptor 7 (TLR7) agonists having a tricyclic moiety, conjugates thereof, and methods and uses therefor” (BRISTOL-MYERS SQUIBB COMPANY, priority 2017, dated 2021).

Tested on: IFN-α
Conditions: as measured by IFN-α induction

CCCCOc1nc(N)c2c(n1)N(Cc1cccc(CN3CCCC3)c1)CC(=O)N2 [Vesatolimod, vesatolimod]
potency, fold less than that of the corresponding purine-8-one compound: 100 ×
